Patent US4125707A, “Protected pseudotrisaccharide intermediate for paromomycin and neomycin derivatives” (Societa' Farmaceutici Italia S.p.A., priority 1974, dated 1978)
≈ marks a conversion by molar mass, not a printed value. Read-outs that look alike come from different tables or passages of the source.

Legend:
[1] = system: resistant strains (E. coli, Proteus sp.); assay: antibacterial activity on resistant strains; type: cell-based; details: for growth of resistant strains (in words): E. coli, Proteus sp., at concentrations at which 224 prevents growth
Experimental: (§1) The "in vitro" tests were carried out with the method of serial dilutions in liquid medium (Nutrient Broth Difco). The minimal inhibitory concentration (MIC) was determined after 24 h incubation at 37° C.
(§2) The resistance to the aminosidine is due, in the case of E. coli 526, to the production of an aminoglycoside inactivating enzyme (NKT I); the other strains are clinical isolates whose mechanism of resistance is not know.

Proteus sp.3 = assay: MIC, serial dilutions in liquid medium, Proteus sp.3; type: cell-based; details: 24 h, 37° C, Nutrient Broth Difco
Experimental: as §1, §2

Tetrahymena geleei = assay: growth inhibition of Tetrahymena geleei in liquid nutrient medium; type: cell-based
Experimental: (§3) Other tests were carried out on algae and protozoa in order to evaluate the sensitivity of eukaryotic organisms to this new molecule (determination of MIC in liquid nutrient medium).
(§4) (*)Dose inhibiting 50% of growth (.LAMBDA.) or of protein

[2] = system: ribosomes from Saccharomyces cerevisiae (8OS); assay: inhibition of protein synthesis in cell-free system, 80S ribosomes; type: biochemical
Experimental: (§5) Finally, compound 224 was tested as an inhibitor of protein synthesis on cell-free systems containing ribosomes from Escherichia coli (7OS) or from Saccharomyces cerevisiae (8OS).
as §4

E.coli K12 = assay: MIC, serial dilutions in liquid medium, E. coli K12; type: cell-based; details: Escherichia coli, 24 h, 37° C, Nutrient Broth Difco
Experimental: as §1

Klebsiella pneumoniae = assay: MIC, serial dilutions in liquid medium, Klebsiella pneumoniae; type: cell-based; details: 24 h
Experimental: as §1

Staphilococcus aureus = assay: MIC, serial dilutions in liquid medium, Staphylococcus aureus; type: cell-based; details: 24 h
Experimental: as §1

Escherichia coli B = assay: MIC, serial dilutions in liquid medium, Escherichia coli B; type: cell-based; details: 24 h, 37° C, Nutrient Broth Difco
Experimental: as §1

Proteus sp.2 = assay: MIC, serial dilutions in liquid medium, Proteus sp.2; type: cell-based; details: 24 h
Experimental: as §1, §2

Euglena gracilis = assay: growth inhibition of Euglena gracilis in liquid nutrient medium; type: cell-based
Experimental: as §3, §4

Ochromonas malhamensis = assay: growth inhibition of Ochromonas malhamensis in liquid nutrient medium; type: cell-based
Experimental: as §3, §4

Proteus sp.1 = assay: MIC, serial dilutions in liquid medium, Proteus sp.1; type: cell-based; details: 24 h, 37° C, Nutrient Broth Difco
Experimental: as §1, §2

Entamoeba histolytica = assay: growth inhibition of Entamoeba histolytica in liquid nutrient medium; type: cell-based
Experimental: as §3

[3] = system: ribosomes from Escherichia coli (7OS); assay: inhibition of protein synthesis in cell-free system, 70S ribosomes; type: biochemical; details: for Activity (ID 50%), dose inhibiting 50% of protein synthesis: cell-free system, 70S ribosomes
Experimental: as §5, §4

Staphylococcus aureus = assay: therapeutic activity in mice experimentally infected with Staphylococcus aureus; type: in vivo; details: sc
Experimental: (§6) The therapeutic activity was assessed in mice experimentally infected with Staphylococcus aureus and treated (4 h after infection) with a single dose of the compound by the subcutaneous route.

E.coli 526 = assay: MIC, serial dilutions in liquid medium, E. coli 526 (resistant, NKT I); type: cell-based, Escherichia coli
Experimental: as §1, §2

Proteus sp.5 = assay: MIC, serial dilutions in liquid medium, Proteus sp.5; type: cell-based; details: 24 h
Experimental: as §1, §2

Proteus sp.4 = assay: MIC, serial dilutions in liquid medium, Proteus sp.4; type: cell-based; details: 24 h, 37° C, Nutrient Broth Difco
Experimental: as §1, §2

algae and protozoa = assay: growth of algae and protozoa; type: cell-based; details: eukaryotic microorganisms, Table 2
Experimental: as §3

acute toxicity in mice = details: mouse, in vivo, sc, subcutaneous route
Experimental: There were also carried out comparative trials for determining the actue toxicity and ototoxicity. The LD50 values in mice by the subcutaneous route are: Aminosidine, 700 mg/kg; Compound 224, 1000 mg/kg.

[4] = system: bacteria sensitive to the aminosidine; assay: antibacterial activity in vitro and in vivo on bacteria sensitive to aminosidine
Experimental: as §1, §6

[5] = 37° C, Nutrient Broth Difco, read-out: MIC

In the case of `NC[C@@H]1O[C@H](O[C@H]2[C@@H](O)[C@H](O[C@@H]3[C@@H](O)[C@H](N)C[C@H](N)[C@H]3O[C@H]3O[C@H](CO)[C@@H](O)[C@H](O)[C@H]3N)O[C@@H]2CO)[C@H](N)[C@@H](O)[C@@H]1O` [Aminosidine, reference compound], the “growth of resistant strains (in words)” value [1] was “completely inactive”, the MIC (Proteus sp.3) was > 500 µg/mL and the “Activity (ID 50%), dose inhibiting 50% of growth” value (Tetrahymena geleei) was 12.5. For the same molecule, the “Activity (ID 50%), dose inhibiting 50% of protein synthesis” value [2] was 65, the MIC (E.coli K12) was 500 µg/mL (≈ 812 µM) and the MIC (Klebsiella pneumoniae) was 1 µg/mL (≈ 1.62 µM). For the same molecule, the MIC (Staphilococcus aureus) was 3.1 µg/mL (≈ 5.04 µM), the MIC (Escherichia coli B) was 6.2 µg/mL (≈ 10.1 µM) and the MIC (Proteus sp.2) was > 500 µg/mL. The “Activity (ID 50%), dose inhibiting 50% of growth” value (Euglena gracilis) was 12.5, the “Activity (ID 50%), dose inhibiting 50% of growth” value (Ochromonas malhamensis) was 1.56 and the MIC (Proteus sp.1) was 500 µg/mL (≈ 812 µM). The “Activity (ID 50%), dose inhibiting 50% of growth” value (Entamoeba histolytica) was 1, the “Activity (ID 50%), dose inhibiting 50% of protein synthesis” value [3] was 30 and the ED50 (Staphylococcus aureus; 4 h, read-out: DT50) was 25 mg/kg. For the same molecule, the MIC (E.coli 526; Escherichia coli, 526, 24 h) was > 500 µg/mL, the MIC (Proteus sp.5) was > 500 µg/mL and the MIC (Proteus sp.4) was > 500 µg/mL. For the same molecule, the “effect on growth of algae and protozoa (in words)” value (algae and protozoa) was “strong inhibitor of the organisms tested” and the LD50 (acute toxicity in mice) was 700 mg/kg.

In the case of `NC[C@@H]1O[C@H](O[C@H]2[C@@H](O)[C@H](O[C@@H]3[C@@H](O)[C@H](N)C[C@H](N)[C@H]3O[C@H]3O[C@H](CN)[C@@H](O)[C@H](O)[C@H]3O)O[C@@H]2CO)[C@H](N)[C@@H](O)[C@@H]1O` [compound 224], the “antibacterial activity in vitro and in vivo (in words)” value ([4]; bacteria sensitive to the aminosidine) was “remarkable antibacterial activity in vitro and in vivo”, the “antibacterial activity compared with aminosidine, sensitive strains (in words)” value ([4]; sensitive strains) was “of the same order of magnitude of that of aminosidine” and the “growth of resistant strains (in words)” value [1] was “prevents the growth of resistant strains”. The “antibacterial activity compared with aminosidine, resistant strains (in words)” value ([1]; resistant strains) was “clearly superior on resistant strains”, the MIC (Proteus sp.3) was 125 µg/mL (≈ 203 µM) and the “Activity (ID 50%), dose inhibiting 50% of growth” value (Tetrahymena geleei) was > 100. For the same molecule, the “Activity (ID 50%), dose inhibiting 50% of protein synthesis” value [2] was > 500, the MIC (E.coli K12) was 125 µg/mL (≈ 203 µM) and the MIC (Klebsiella pneumoniae; [5]) was 2 µg/mL (≈ 3.25 µM). The MIC (Staphilococcus aureus; [5]) was 6.2 µg/mL (≈ 10.1 µM), the MIC (Escherichia coli B) was 12.5 µg/mL (≈ 20.3 µM) and the MIC (Proteus sp.2; [5]) was 250 µg/mL (≈ 406 µM). The “Activity (ID 50%), dose inhibiting 50% of growth” value (Euglena gracilis) was > 100, the “Activity (ID 50%), dose inhibiting 50% of growth” value (Ochromonas malhamensis) was > 100 and the MIC (Proteus sp.1) was 125 µg/mL (≈ 203 µM). For the same molecule, the “Activity (ID 50%), dose inhibiting 50% of growth” value (Entamoeba histolytica) was > 20, the “selective inhibition of protein synthesis (in words)” value ([3]; 7OS in comparison with 8OS ribosomes) was “selective inhibition of protein synthesis” and the “Activity (ID 50%), dose inhibiting 50% of protein synthesis” value [3] was 40. The ED50 (Staphylococcus aureus; mice, single subcutaneous dose 4 h after infection, read-out: DT50 (the source's name)) was 50 mg/kg, the MIC (E.coli 526; Escherichia coli, 526, 24 h, 37° C, Nutrient Broth Difco, resistant strain, read-out: MIC) was 100 µg/mL (≈ 162 µM) and the MIC (Proteus sp.5; [5]) was 250 µg/mL (≈ 406 µM). For the same molecule, the MIC (Proteus sp.4) was 125 µg/mL (≈ 203 µM), the “effect on growth of algae and protozoa (in words)” value (algae and protozoa) was “does not affect the growth of algae and protozoa” and the LD50 (acute toxicity in mice) was 1000 mg/kg.
